Like-named read-outs stand apart in the source and are kept apart here.
What was measured:
A-549 = assay: cells; conditions: Homo sapiens, A549, 48 h
Description: (§1) This form of the assay employs 96 well cell culture microplates of 9 mm diameter (Faircloth, 1988; Mosmann, 1983). Most of the cell lines are obtained from American Type Culture Collection (ATCC) derived from different human cancer types.
(§2) Cells are maintained in RPMI 1640 10% FBS, supplemented with 0.1 g/l penicillin and 0.1 g/l streptomycin sulfate and then incubated at 37° C., 5% CO2 and 98% humidity. For the experiments, cells were harvested from subconfluent cultures using trypsin and resuspended in fresh medium before plating.
(§3) Cells are seeded in 96 well microtiter plates, at 5×10^3 cells per well in aliquots of 195 μl medium, and they are allowed to attach to the plate surface by growing in drug free medium for 18 hours. Afterward, samples are added in aliquots of 5 μl in a ranging from 10 to 10^−8 μg/ml, dissolved in DMSO/EtOH/PBS (0.5:0.5:99). After 48 hours exposure, the antitumor effect are measured by the SRB methodology: cells are fixed by adding 50 μl of cold 50% (wt/vol) trichloroacetic acid (TCA) and incubating for 60 minutes at 4° C. Plates are washed with deionized water and dried. One hundred μl of SRB solution (0.4% wt/vol in 1% acetic acid) is added to each microtiter well and incubated for 10 minutes at room temperature. Unbound SRB is removed by washing with 1% acetic acid. Plates are air dried and bound stain is solubilzed with Tris buffer. Optical densities are read on a automated spectrophotometric plate reader at a single wavelength of 490 nm.
(§4) The values for mean +/− SD of data from triplicate wells are calculated. Some parameters for cellular responses can be calculated: GI=growth inhibition, TGI=total growth inhibition (cytostatic effect) and LC=cell killing (cytotoxic effect).

HT-29 = assay: cells; conditions: Homo sapiens, HT-29, 48 h
Description: as §1, §2, §3, §4

K-562 = assay: Inhibition of cells growth by colorimetric assay (SRB); conditions: Homo sapiens, K562, 48 h
Description: as §1, §2, §3, §4

LNCaP = assay: as above; conditions: Homo sapiens, LNCaP, 48 h
Description: as §1, §2, §3, §4

LoVo = assay: cells; conditions: Homo sapiens, LoVo, 48 h
Description: as §1, §2, §3, §4

DU-145 = assay: Inhibition of cells growth by colorimetric assay (SRB); conditions: Homo sapiens, DU-145, 48 h
Description: as §1, §2, §3, §4

HeLa-APL = assay: as above; conditions: Homo sapiens, 48 h
Description: as §1, §2, §3, §4

HeLa = assay: as above; conditions: Homo sapiens, HeLa, 48 h
Description: as §1, §2, §3, §4

IGROV-1 = assay: as above; conditions: Homo sapiens, IGROV-1, 48 h
Description: as §1, §2, §3, §4

IGROV-ET = assay: as above; conditions: Homo sapiens, 48 h
Description: as §1, §2, §3, §4

LoVo-Dox = assay: as above; conditions: Homo sapiens, 48 h
Description: as §1, §2, §3, §4

PANC-1 = assay: as above; conditions: Homo sapiens, PANC-1, 48 h
Description: as §1, §2, §3, §4

SK-MEL-28 = assay: as above; conditions: Homo sapiens, SK-MEL-28, 48 h
Description: as §1, §2, §3, §4

COc1c(C)cc2c(c1O)[C@@H]1C3[C@@H]4SCC(N)C(=O)OC[C@@H](c5c6c(c(C)c(OC(C)=O)c54)OCO6)N3[C@@H](C#N)C(C2)N1C (some centres unmarked) [compound 18]
GI50 (A-549; read-out: GI50 A549): 161 nM
CC50 (A-549; read-out: LC50 A549): 8040 nM
IC (TGI) (A-549; read-out: TGI A549): 643 nM
GI50 (HT-29; read-out: GI50 HT29): 80.4 nM
CC50 (HT-29; read-out: LC50 HT29): 80400 nM
IC (TGI) (HT-29; read-out: TGI HT29): 643 nM

C=CCOc1c(C)c2c(c3c1CC1[C@H]4c5c(cc(C)c(OC)c5OCOCCOC)C[C@@H]([C@H](C#N)N1[C@H]3CO[Si](c1ccccc1)(c1ccccc1)C(C)(C)C)N4C)OCO2 (some centres unmarked) [compound 4]
GI50 (A-549; read-out: GI50 A549): 2360 nM
CC50 (A-549; read-out: LC50 A549): 11800 nM
IC (TGI) (A-549; read-out: TGI A549): 8270 nM
GI50 (HT-29; read-out: GI50 HT29): 591 nM
CC50 (HT-29; read-out: LC50 HT29): 11800 nM
IC (TGI) (HT-29; read-out: TGI HT29): 1180 nM

C=CCN1[C@@H]2c3c(cc(C)c(OC)c3OCOCCOC)C[C@H]1[C@H](C#N)N1C2[C@@H]2SC[C@@H](NC(=O)OC(C)(C)C)C(=O)OC[C@H]1c1c3c(c(C)c(OC(C)=O)c12)OCO3 (some centres unmarked) [compound 11]
GI50 (K-562; read-out: GI50 K562): 4760 nM
GI50 (LNCaP; read-out: GI50 LNCAP): 5840 nM

C=CCOc1c(C)c2c(c3c1CC1[C@H]4c5c(cc(C)c(OC)c5O)C[C@@H]([C@H](C#N)N1[C@H]3CNC(=O)[C@H](CSCC1c3ccccc3-c3ccccc31)NC(=O)OC(C)(C)C)N4C)OCO2 (some centres unmarked) [compound 69]
GI50 (A-549; read-out: A549 GI50): 5570 nM
CC50 (A-549; read-out: A549 LC50): 55700 nM
IC (TGI) (A-549; read-out: A549 TGI): 22300 nM
GI50 (HT-29; read-out: HT29 GI50): 1110 nM
CC50 (HT-29; read-out: HT29 LC50): 11100 nM
IC (TGI) (HT-29; read-out: HT29 TGI): 1110 nM

COc1c(C)cc2c(c1O)[C@H]1N[C@@H](C2)[C@H](C#N)N2C1[C@@H]1SC[C@]3(NCCc4c3[nH]c3ccccc43)C(=O)OC[C@H]2c2c3c(c(C)c(OC(C)=O)c21)OCO3 (some centres unmarked) [compound 59]
GI50 (A-549; read-out: A549 GI50): 15.9 nM
CC50 (A-549; read-out: A549 LC50): 273 nM
IC (TGI) (A-549; read-out: A549 TGI): 48.5 nM
GI50 (HT-29; read-out: HT29 GI50): 3.83 nM
CC50 (HT-29; read-out: HT29 LC50): 4280 nM
IC (TGI) (HT-29; read-out: HT29 TGI): 16 nM
GI50 (LoVo; read-out: LOVO GI50): 5.8 nM
CC50 (LoVo; read-out: LOVO LC50): 1190 nM
IC (TGI) (LoVo; read-out: LOVO TGI): 23.3 nM
GI50 (DU-145; read-out: DU145 GI50): 4.09 nM
CC50 (DU-145; read-out: DU145 LC50): 1640 nM
IC (TGI) (DU-145; read-out: DU145 TGI): 10.2 nM
GI50 (HeLa-APL; read-out: HELA-APL GI50): 3.32 nM
CC50 (HeLa-APL; read-out: HELA-APL LC50): 59.2 nM
IC (TGI) (HeLa-APL; read-out: HELA-APL TGI): 7.69 nM
GI50 (HeLa; read-out: HELA GI50): 2.44 nM
CC50 (HeLa; read-out: HELA LC50): 10.6 nM
IC (TGI) (HeLa; read-out: HELA TGI): 5.08 nM
GI50 (IGROV-1; read-out: IGROV GI50): 3.01 nM
CC50 (IGROV-1; read-out: IGROV LC50): 110 nM
IC (TGI) (IGROV-1; read-out: IGROV TGI): 7.33 nM
GI50 (IGROV-ET; read-out: IGROV-ET GI50): 4.48 nM
CC50 (IGROV-ET; read-out: IGROV-ET LC50): 3040 nM
IC (TGI) (IGROV-ET; read-out: IGROV-ET TGI): 107 nM
GI50 (K-562; read-out: K562 GI50): 1.8 nM
CC50 (K-562; read-out: K562 LC50): 3290 nM
IC (TGI) (K-562; read-out: K562 TGI): 9.83 nM
GI50 (LNCaP; read-out: LNCAP GI50): 1.03 nM
CC50 (LNCaP; read-out: LNCAP LC50): 6.43 nM
IC (TGI) (LNCaP; read-out: LNCAP TGI): 2.67 nM
GI50 (LoVo-Dox; read-out: LOVO-DOX GI50): 123 nM
CC50 (LoVo-Dox; read-out: LOVO-DOX LC50): 3930 nM
IC (TGI) (LoVo-Dox; read-out: LOVO-DOX TGI): 709 nM
GI50 (PANC-1; read-out: PANC-1 GI50): 4.76 nM
CC50 (PANC-1; read-out: PANC-1 LC50): 3750 nM
IC (TGI) (PANC-1; read-out: PANC-1 TGI): 42.3 nM
GI50 (SK-MEL-28; read-out: MEL-28 GI50): 3.56 nM
CC50 (SK-MEL-28; read-out: MEL-28 LC50): 3040 nM
IC (TGI) (SK-MEL-28; read-out: MEL-28 TGI): 11 nM

C=CCN1[C@@H]2c3c(cc(C)c(OC)c3OCOCCOC)C[C@H]1[C@H](C#N)N1C2CC2(O)C(=O)C(C)=C3OCOC3=C2[C@@H]1CO (some centres unmarked) [compound 9]
GI50 (A-549; read-out: GI50 A549): 16400 nM
CC50 (A-549; read-out: LC50 A549): 16400 nM
IC (TGI) (A-549; read-out: TGI A549): 16400 nM
GI50 (HT-29; read-out: GI50 HT29): 16400 nM
CC50 (HT-29; read-out: LC50 HT29): 16400 nM
IC (TGI) (HT-29; read-out: TGI HT29): 16400 nM

C=CCOc1c(C)c2c(c3c1CC1[C@H]4c5c(cc(C)c(OC)c5O)C[C@@H]([C@H](C#N)N1[C@H]3CO[Si](c1ccccc1)(c1ccccc1)C(C)(C)C)N4C)OCO2 (some centres unmarked) [compound 3]
GI50 (A-549; read-out: GI50 A549): 4180 nM
CC50 (A-549; read-out: LC50 A549): 13200 nM
IC (TGI) (A-549; read-out: TGI A549): 13000 nM
GI50 (HT-29; read-out: GI50 HT29): 4010 nM
CC50 (HT-29; read-out: LC50 HT29): 13200 nM
IC (TGI) (HT-29; read-out: TGI HT29): 12300 nM

From US7767659B2, “Synthesis of naturally occurring ecteinascidins and related compounds” (Pharma Mar, S.A., priority 2002, dated 2010)
